The assay has as its system mice. Briefly: Neuropharmacological Assay (SmartCube): automated behavioral signature of compound-treated mice compared with a database of reference drug classes. It is filed as in vivo. The settings on record: for minimal effective dose: Mus musculus, ip; for minimal effective dose / MED / MED (minimal effective dose): i.p., that dose is shown. A digest of the protocol:
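i.p. dosing 15 min pre-test (NMP/PEG/propylene glycol vehicle); 3 doses, 3.0 mg/kg reported. Output = class-match probability per behavioural effect. Potency runs 0.3, 1, 3, 10 mpk (range adjusted as needed); MED = dose with ≥45% total activity.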

[1] abbreviates: dose having 45% or more total activity in SmartCube, if only one dose was tested, read-out: MED (minimal effective dose).
[2] abbreviates: probability that activity matches this class of agents, 3.0 mg/kg i.p., 15 min before test.
[3] abbreviates: probability that activity matches this class of agents, 3.0 mg/kg i.p., 15 min before test, hydrochloride, 3 mg/kg.
[4] abbreviates: SmartCube probability class, 3.0 mg/kg dose, i.p. 15 min before the behavioral test.
Where [5] appears, read: SmartCube probability class, 3.0 mg/kg dose, i.p. 15 min before the behavioral test, hydrochloride, 3 mg/kg.
Setting [6] is: minimal effective dose: dose having 45% or more total activity in SmartCube, if only one dose was tested, read-out: MED.
The mark [7] stands for this setting: SmartCube class probability, 3.0 mg/kg i.p., 15 min before test.
Where [8] appears, read: SmartCube class probability, 3.0 mg/kg i.p., 15 min before test, hydrochloride, 3 mg/kg.
[9] abbreviates: dose having 45% or more total activity in SmartCube, if only one dose was tested, hydrochloride.

Structures can show the parent of a compound that is named as a salt. Where two headings read alike, the source gives them in different places. Where only a bound is given, the exact number is not on record here.

As for `CNC1CCc2cc(C#N)sc2C1` (single isomer, unassigned) [Compound 36, 6-(methylamino)-4,5,6,7-tetrahydrobenzothiophene-2-carbonitrile hydrochloride], under setting [1], the minimal effective dose was determined as 3 mg/kg. Besides, under setting [2], the AD entry is on record as “ND (^ <4%)”, the AG entry was “ND (^ <4%)”, the AN entry is recorded as “ND (^ <4%)” and the AX result is “ND (^ <4%)”. Besides, under setting [2], the CE entry is “ND (^ <4%)”, the HL entry is given as “ND (^ <4%)”, the MS entry was “ND (^ <4%)” and the PS result is given as “ND (^ <4%)”. The SH entry under setting [2] is “ND (^ <4%)”. Further, under setting [3], the AP result was “+++ (≥49%)” and the UK entry is “++ (≥24%)”.

As for `CNC1Cc2scc(C)c2C1` (single isomer, unassigned) [Compound 317, N, 3-dimethyl-5,6-dihydro-4H-cyclopenta[b]thiophen-5-amine hydrochloride], under setting [4], the AD result is recorded as “ND (^ <4%)”, the AG result is recorded as “ND (^ <4%)”, the AN entry is given as “ND (^ <4%)” and the HL result is reported as “ND (^ <4%)”. In addition, under setting [4], the MS result is on record as “ND (^ <4%)”, the PS entry is “ND (^ <4%)”, the SH entry is “ND (^ <4%)” and the UK entry is “ND (^ <4%)”. In addition, under setting [5], the AP result was “+ (≥4%)”, the AX entry was “+++ (≥49%)” and the CE entry is listed as “+ (≥4%)”. The MED (minimal effective dose: dose having 45% or more total activity in SmartCube, if only one dose was tested) is 3 mpk.

For `NC1COc2c(C3CC3)csc2C1` (single isomer, unassigned) [Compound 329, 3-cyclopropyl-6,7-dihydro-5H-thieno[3,2-b]pyran-6-amine hydrochloride], the minimal effective dose under setting [6] is less than 3 mg/kg. Under setting [4], the AG entry was “ND (^ <4%)”, the AN entry was “ND (^ <4%)”, the AP result was “ND (^ <4%)” and the AX entry is listed as “ND (^ <4%)”. For the same molecule, under setting [4], the CE entry was “ND (^ <4%)”, the HL result is “ND (^ <4%)”, the MS result is “ND (^ <4%)” and the PS entry was “ND (^ <4%)”. Moreover, the SH result under setting [4] was “ND (^ <4%)”. In addition, under setting [5], the AD result is on record as “++++ (≥74%)” and the UK result was “ND (^ <4%)”.

Consider `CNC1CCc2sc(C)cc2C1` (stereo not drawn) [Compound 197, N, 2-dimethyl-4,5,6,7-tetrahydrobenzothiophen-5-amine hydrochloride], for which, under “minimal effective dose: dose having 45% or more total activity in SmartCube, if only one dose tested, read-out: MED”, the minimal effective dose amounted to 3 mg/kg. Under setting [7], the AD entry is “ND (^ <4%)”, the AG entry is “ND (^ <4%)”, the AN result was “ND (^ <4%)” and the AP entry was “ND (^ <4%)”. In addition, under setting [7], the AX result was “ND (^ <4%)”, the CE result is “ND (^ <4%)”, the HL result is “ND (^ <4%)” and the MS result is on record as “ND (^ <4%)”. Under setting [7], the PS entry was “ND (^ <4%)”, the SH result is reported as “ND (^ <4%)” and the UK entry is “+++ (≥49%)”.

Regarding `CNC1(C)CCc2sccc2C1` (single isomer, unassigned) [Compound 179, N, 5-dimethyl-6,7-dihydro-4H-benzothiophen-5-amine hydrochloride], under setting [7], the AG entry is given as “ND (^ <4%)”, the AP entry is “ND (^ <4%)”, the AX result is listed as “ND (^ <4%)” and the CE result is on record as “ND (^ <4%)”. Under setting [7], the HL result is “ND (^ <4%)”, the MS entry is on record as “ND (^ <4%)”, the SH result is on record as “ND (^ <4%)” and the UK result is recorded as “ND (^ <4%)”. In addition, under setting [8], the AD entry is on record as “+++ (≥49%)”, the AN entry was “+ (≥4%)” and the PS result is reported as “+ (≥4%)”. Moreover, the MED (minimal effective dose: dose having 45% or more total activity in SmartCube, if only one dose tested, hydrochloride) was determined as 3 mpk.

As to `CC1(N)CCc2cscc2C1.Cl` (single isomer, unassigned) [Compound 122, 5-methyl-6,7-dihydro-4H-2-benzothiophen-5-amine hydrochloride], the minimal effective dose under setting [1] was found to be 1 mg/kg. In addition, under setting [2], the AG result is “ND (^ <4%)”, the AN result is recorded as “ND (^ <4%)”, the AP result is “ND (^ <4%)” and the CE result is on record as “ND (^ <4%)”. In addition, under setting [2], the MS result is on record as “ND (^ <4%)”, the SH entry is on record as “ND (^ <4%)” and the UK entry is recorded as “ND (^ <4%)”. Under setting [3], the AD result is listed as “+++ (≥49%)”, the AX result was “+ (≥4%)”, the HL entry is “ND (^ <4%)” and the PS entry is “ND (^ <4%)”.

On to `CCC1(NC)CCc2sccc2C1` (single isomer, unassigned) [Compound 291, 5-ethyl-N-methyl-6,7-dihydro-4H-benzothiophen-5-amine hydrochloride], for which, under setting [6], the minimal effective dose is more than 3 mg/kg. Under setting [4], the AD entry was “ND (^ <4%)”, the AG result is “ND (^ <4%)”, the AN entry is “ND (^ <4%)” and the AP result was “ND (^ <4%)”. Further, under setting [4], the AX entry was “ND (^ <4%)”, the CE entry is “ND (^ <4%)”, the HL entry is given as “ND (^ <4%)” and the MS result is recorded as “ND (^ <4%)”. For the same molecule, under setting [4], the PS result was “ND (^ <4%)” and the SH result is listed as “ND (^ <4%)”. Further, the UK entry under setting [5] is recorded as “+ (≥4%)”.

As for `CNC1CCc2c(Cl)sc(Cl)c2C1` (single isomer, unassigned) [Compound 60, 1,3-dichloro-N-methyl-4,5,6,7-tetrahydro-2-benzothiophen-5-amine hydrochloride], the “MED (minimal effective dose)” value (dose having 45% or more total activity in SmartCube, if only one dose was tested) is reported as 3.0 mpk. Also, under setting [2], the AD entry is “ND (^ <4%)”, the AG result is “ND (^ <4%)”, the AN result is given as “ND (^ <4%)” and the CE result is on record as “ND (^ <4%)”. Also, under setting [2], the HL result is reported as “ND (^ <4%)”, the MS entry is on record as “ND (^ <4%)”, the PS result is on record as “ND (^ <4%)” and the SH result is given as “ND (^ <4%)”. Under setting [2], the UK entry was “ND (^ <4%)”. For the same molecule, under setting [3], the AP result is reported as “+ (≥4%)” and the AX entry was “+++ (≥49%)”.

Turning to `CNC1CCCc2sccc2C1` (stereo not drawn) [Compound 326, N-methyl-5,6,7,8-tetrahydro-4H-cyclohepta[b]thiophen-5-amine hydrochloride], the minimal effective dose under setting [6] worked out at 3 mg/kg. Further, under setting [4], the AD entry is “ND (^ <4%)”, the AG result is given as “ND (^ <4%)”, the AN entry is recorded as “ND (^ <4%)” and the AP result is reported as “ND (^ <4%)”. Under setting [4], the AX result was “++ (≥24%)”, the CE result is given as “ND (^ <4%)”, the HL result is “ND (^ <4%)” and the MS entry is on record as “ND (^ <4%)”. Besides, under setting [4], the PS result is on record as “ND (^ <4%)”, the SH result is “ND (^ <4%)” and the UK result was “++ (≥24%)”.

On to `Cc1csc2c1CCC(N)C2` (single isomer, unassigned) [Compound 66, 3-methyl-4,5,6,7-tetrahydrobenzothiophen-6-amine hydrochloride], for which, under setting [9], the “MED (minimal effective dose)” value amounted to 1 mpk. Under setting [2], the AG entry is listed as “ND (^ <4%)”, the AN result is listed as “ND (^ <4%)”, the AX entry is “ND (^ <4%)” and the CE entry is “ND (^ <4%)”. In addition, under setting [2], the MS entry was “ND (^ <4%)”, the SH entry was “ND (^ <4%)” and the UK result is on record as “ND (^ <4%)”. Further, under setting [3], the AD result is on record as “ND (^ <4%)”, the AP result is listed as “++++ (≥74%)”, the HL entry is recorded as “ND (^ <4%)” and the PS entry is “ND (^ <4%)”.

On to `CC1(N2CCCC2)CCc2sccc2C1.Cl` (single isomer, unassigned) [Compound 283, 1-(5-methyl-4,5,6,7-tetrahydrobenzo[b]thiophen-5-yl)pyrrolidine hydrochloride], for which the minimal effective dose under setting [6] came out at 3 mg/kg. Further, under setting [4], the AD result is recorded as “ND (^ <4%)”, the AG result was “ND (^ <4%)”, the AN result is given as “ND (^ <4%)” and the AP entry is “ND (^ <4%)”. Further, under setting [4], the AX entry is reported as “ND (^ <4%)”, the CE result is “ND (^ <4%)”, the HL result is on record as “ND (^ <4%)” and the MS result is given as “ND (^ <4%)”. In addition, under setting [4], the PS result is reported as “ND (^ <4%)” and the SH entry is recorded as “ND (^ <4%)”. Also, the UK entry under setting [5] is on record as “+ (≥4%)”.

`CNC1CCc2c(C)sc(C)c2C1` (single isomer, unassigned) [Compound 31, N, 1,3-trimethyl-4,5,6,7-tetrahydro-2-benzothiophen-5-amine hydrochloride]: the “MED (minimal effective dose)” value under setting [9] is on record as 3.0 mpk. For the same molecule, under setting [2], the AD result is recorded as “ND (^ <4%)”, the AG entry is “ND (^ <4%)”, the AN result was “ND (^ <4%)” and the CE result is recorded as “ND (^ <4%)”. Besides, under setting [2], the HL entry is listed as “ND (^ <4%)”, the MS entry is reported as “ND (^ <4%)”, the PS result was “ND (^ <4%)” and the UK entry is “ND (^ <4%)”. In addition, under setting [3], the AP entry is recorded as “+++ (≥49%)”, the AX result is “++ (≥24%)” and the SH entry is listed as “ND (^ <4%)”.

Values taken from patent publication US20260274814A1, “THIENYL COMPOUNDS FOR THE TREATMENT OF A CENTRAL NERVOUS SYSTEM DISEASE OR DISORDER” (Coreterra Therapeutics, Inc., priority 2023, published 2026).
